From patent US10202370B2, “Benzimidazole derivatives as selective proteine kinase inhibitors” (AB SCIENCE, priority 2013, dated 2019)

target: c-kit WT (Homo sapiens (Human), UniProt P10721); experiment: Proliferation assay (CellTiter-Blue) on BaF3 Kit WT cell line; assay type: cell-based; conditions: BaF3 Kit WT cell line (murine Ba/F3 expressing Human Kit WT, with murine SCF), 48 hours
How it was run: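 Ba/F3 cells expressing human Kit WT, maintained in RPMI/10% FCS with 250 ng/ml murine SCF, were seeded at 2.10^4 cells/well and exposed to ½ serial dilutions (0–10 μM) for 48 h at 37° C. Viability was measured by CellTiter-Blue fluorescence (544Ex/590Em, 4 h) in triplicate as % of untreated proliferation.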

c-kit WT, sequence (P10721 26-976): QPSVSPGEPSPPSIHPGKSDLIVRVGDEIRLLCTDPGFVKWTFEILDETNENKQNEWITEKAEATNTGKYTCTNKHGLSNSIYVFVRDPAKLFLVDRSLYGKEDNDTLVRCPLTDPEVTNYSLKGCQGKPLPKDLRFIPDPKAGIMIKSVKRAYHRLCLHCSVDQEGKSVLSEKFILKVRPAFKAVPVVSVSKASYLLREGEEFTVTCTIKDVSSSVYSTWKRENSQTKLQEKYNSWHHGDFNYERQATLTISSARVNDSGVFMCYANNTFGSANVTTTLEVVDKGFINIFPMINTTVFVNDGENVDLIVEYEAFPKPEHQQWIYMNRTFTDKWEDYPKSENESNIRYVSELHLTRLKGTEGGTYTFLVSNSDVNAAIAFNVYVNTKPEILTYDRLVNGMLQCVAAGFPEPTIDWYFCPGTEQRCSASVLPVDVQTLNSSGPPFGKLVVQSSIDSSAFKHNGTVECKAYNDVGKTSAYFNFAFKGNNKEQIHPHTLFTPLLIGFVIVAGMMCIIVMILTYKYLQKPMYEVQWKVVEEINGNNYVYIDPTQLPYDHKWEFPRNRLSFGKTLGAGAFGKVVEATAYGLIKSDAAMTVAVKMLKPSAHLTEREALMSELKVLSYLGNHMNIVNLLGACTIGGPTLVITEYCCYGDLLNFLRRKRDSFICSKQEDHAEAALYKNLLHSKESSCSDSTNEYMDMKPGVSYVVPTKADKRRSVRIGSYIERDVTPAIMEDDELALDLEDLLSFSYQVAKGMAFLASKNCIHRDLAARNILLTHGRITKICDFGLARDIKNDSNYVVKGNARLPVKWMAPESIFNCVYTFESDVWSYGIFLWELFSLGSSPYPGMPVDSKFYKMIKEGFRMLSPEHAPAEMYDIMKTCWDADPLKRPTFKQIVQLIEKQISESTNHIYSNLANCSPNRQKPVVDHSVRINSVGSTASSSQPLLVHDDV

Row | SMILES | IC50
1 | Cc1cc2nc(-c3ccccc3C)[nH]c2cc1Nc1nc(-c2cccnc2)cs1 [Compound 001, (6-Methyl-2-o-tolyl-3H-benzoimidazol-5-yl)-(4-pyridin-3-yl-thiazol-2-yl)-amine] | 1 to 10 µM
2 | C=CS(=O)(=O)Nc1cccc(-c2nc3cc(Nc4nc(-c5ccncc5)cs4)c(C)cc3n2C)c1 [Compound 135, Ethenesulfonic acid {3-[1,6-dimethyl-5-(4-pyridin-4-yl-thiazol-2-ylamino)-1H-benzoimidazol-2-yl]-phenyl}-amide] | 1 to 10 µM
3 | Cc1cccc(-c2nc3cc(Nc4nc(-c5ccnc(Cl)c5)cs4)c(C)cc3[nH]2)c1 [Compound 107, [4-(2-Chloro-pyridin-4-yl)-thiazol-2-yl]-(6-methyl-2-m-tolyl-1H-benzoimidazol-5-yl)-amine] | ≤ 1 µM
4 | Cc1cc2nc(-c3cccc(OC(F)(F)F)c3)[nH]c2cc1Nc1nc(-c2cncnc2)cs1 [Compound 063, [6-Methyl-2-(3-trifluoromethoxy-phenyl)-3H-benzoimidazol-5-yl]-(4-pyrimidin-5-yl-thiazol-2-yl)-amine] | 1 to 10 µM
5 | Cc1cc2[nH]c(-c3cccc(C(F)(F)F)c3)nc2cc1Nc1nc(-c2ccnc(Cl)c2)cs1 [Compound 106, [4-(2-Chloro-pyridin-4-yl)-thiazol-2-yl]-[6-methyl-2-(3-trifluoromethyl-phenyl)-1H-benzoimidazol-5-yl]-amine] | ≤ 1 µM
6 | Cc1ccc(-c2nc3cc(C)c(Nc4nc(-c5cccnc5)cs4)cc3[nH]2)s1 [Compound 078, [6-Methyl-2-(5-methyl-thiophen-2-yl)-3H-benzoimidazol-5-yl]-(4-pyridin-3-yl-thiazol-2-yl)-amine] | ≤ 1 µM
7 | Cc1cc2nc(-c3ccc(-n4cccn4)cc3)[nH]c2cc1Nc1nc(-c2cccnc2)cs1 [Compound 057, [6-Methyl-2-(4-pyrazol-1-yl-phenyl)-3H-benzoimidazol-5-yl]-(4-pyridin-3-yl-thiazol-2-yl)-amine] | ≤ 1 µM
8 | Cc1cc2nc(-c3cccc(C(F)(F)F)c3)[nH]c2cc1Nc1nc(-c2cccnc2)cs1 [Compound 005, [6-Methyl-2-(3-trifluoromethyl-phenyl)-3H-benzoimidazol-5-yl]-(4-pyridin-3-yl-thiazol-2-yl)-amine] | ≤ 1 µM
9 | Cc1cc2nc(-c3cccc(C(F)F)c3)[nH]c2cc1Nc1nc(-c2cccc(C#N)c2)cs1 [Compound 127, 3-{2-[2-(3-Difluoromethyl-phenyl)-6-methyl-3H-benzoimidazol-5-ylamino]-thiazol-4-yl}-benzonitrile] | ≤ 1 µM
10 | Cc1cc2nc(-c3cccnc3)[nH]c2cc1Nc1nccc(-c2cccnc2)n1 [Compound 014, (6-Methyl-2-pyridin-3-yl-3H-benzoimidazol-5-yl)-(4-pyridin-3-yl-pyrimidin-2-yl)-amine] | 1 to 10 µM
11 | Cc1cc2nc(-c3ccc(C(F)(F)F)cc3)[nH]c2cc1Nc1nc(-c2cncnc2)cs1 [Compound 067, [6-Methyl-2-(4-trifluoromethyl-phenyl)-1H-benzoimidazol-5-yl]-(4-pyrimidin-5-yl-thiazol-2-yl)-amine] | 1 to 10 µM
12 | Cc1cc2nc(-c3cc(CN4CCN(C)CC4)cc(C(F)(F)F)c3)[nH]c2cc1Nc1nccc(-c2cccnc2)n1 [Compound 040, {6-Methyl-2-[3-(4-methyl-piperazin-1-ylmethyl)-5-trifluoromethyl-phenyl]-3H-benzoimidazol-5-yl}-(4-pyridin-3-yl-pyrimidin-2-yl)-amine] | 1 to 10 µM
13 | Cc1cc2c(cc1Nc1nc(-c3ccncc3)cs1)nc(-c1cc(F)cc(C(F)(F)F)c1)n2C [Compound 147, [2-(3-Fluoro-5-trifluoromethyl-phenyl)-1,6-dimethyl-1H-benzoimidazol-5-yl]-(4-pyridin-4-yl-thiazol-2-yl)-amine] | ≤ 1 µM
14 | Cc1cccc(-c2nc3cc(Nc4nc(-c5ccc(C#N)cc5)cs4)c(C)cc3n2C)c1 [Compound 112, 4-[2-(1,6-Dimethyl-2-m-tolyl-1H-benzoimidazol-5-ylamino)-thiazol-4-yl]-benzonitrile] | ≤ 1 µM
15 | Cc1cc2[nH]c(-c3cccc(C(C)(C)C)c3)nc2cc1Nc1nc(-c2cccnc2)cs1 [Compound 137, [2-(3-tert-Butyl-phenyl)-6-methyl-1H-benzoimidazol-5-yl]-(4-pyridin-3-yl-thiazol-2-yl)-amine] | ≤ 1 µM
16 | COc1cccc(-c2nc3cc(Nc4nc(-c5cccnc5)cs4)c(C)cc3[nH]2)c1 [Compound 126, [2-(3-Methoxy-phenyl)-6-methyl-1H-benzoimidazol-5-yl]-(4-pyridin-3-yl-thiazol-2-yl)-amine] | ≤ 1 µM
17 | Cc1cc2nc(-c3cc(F)cc(C(F)(F)F)c3)[nH]c2cc1Nc1nc(-c2cccnc2)cs1 [Compound 058, [2-(3-Fluoro-5-trifluoromethyl-phenyl)-6-methyl-3H-benzoimidazol-5-yl]-(4-pyridin-3-yl-thiazol-2-yl)-amine] | ≤ 1 µM
18 | Cc1cc2[nH]c(-c3cc(F)cc(C(F)(F)F)c3)nc2cc1Nc1nc(-c2ccncc2)cs1 [Compound 149, [2-(3-Fluoro-5-trifluoromethyl-phenyl)-6-methyl-1H-benzoimidazol-5-yl]-(4-pyridin-4-yl-thiazol-2-yl)-amine] | ≤ 1 µM

Row | SMILES | IC50
19 | Cc1cc2nc(-c3cc(CN4CCCC4)cc(C(F)(F)F)c3)[nH]c2cc1Nc1nccc(-c2cccnc2)n1 [Compound 029, [6-Methyl-2-(3-pyrrolidin-1-ylmethyl-5-trifluoromethyl-phenyl)-3H-benzoimidazol-5-yl]-(4-pyridin-3-yl-pyrimidin-2-yl)-amine] | ≤ 1 µM
20 | Cc1cc2c(cc1Nc1nc(-c3ccncc3)cs1)nc(-c1cccc(C(F)(F)F)c1)n2C [Compound 082, [1,6-Dimethyl-2-(3-trifluoromethyl-phenyl)-1H-benzoimidazol-5-yl]-(4-pyridin-4-yl-thiazol-2-yl)-amine] | ≤ 1 µM
21 | Cc1cc2c(cc1Nc1nc(-c3cccnc3)cs1)nc(-c1cccc(C(F)F)c1)n2C [Compound 084, [2-(3-Difluoromethyl-phenyl)-1,6-dimethyl-1H-benzoimidazol-5-yl]-(4-pyridin-3-yl-thiazol-2-yl)-amine] | ≤ 1 µM
22 | FC(F)c1cccc(-c2nc3cc(Nc4nc(-c5cccnc5)cs4)ccc3[nH]2)c1 [Compound 087, [2-(3-Difluoromethyl-phenyl)-1H-benzoimidazol-5-yl]-(4-pyridin-3-yl-thiazol-2-yl)-amine] | ≤ 1 µM
23 | C#Cc1cccc(-c2nc3cc(Nc4nc(-c5cccnc5)cs4)c(C)cc3n2C)c1 [Compound 146, [2-(3-Ethynyl-phenyl)-1,6-dimethyl-1H-benzoimidazol-5-yl]-(4-pyridin-3-yl-thiazol-2-yl)-amine] | ≤ 1 µM
24 | Cc1cc2nc(-c3cccc(S(C)(=O)=O)c3)[nH]c2cc1Nc1nccc(-c2cccnc2)n1 [Compound 038, [2-(3-Methanesulfonyl-phenyl)-6-methyl-3H-benzoimidazol-5-yl]-(4-pyridin-3-yl-pyrimidin-2-yl)-amine] | 1 to 10 µM
25 | Cc1cc2[nH]c(-c3cccc(C(C)C)c3)nc2cc1Nc1nc(-c2ccc(C#N)cc2)cs1 [Compound 143, 4-{2-[2-(3-Isopropyl-phenyl)-6-methyl-1H-benzoimidazol-5-ylamino]-thiazol-4-yl}-benzonitrile] | ≤ 1 µM
26 | Cc1cc2c(cc1Nc1nc(-c3ccc(C#N)cc3)cs1)nc(-c1cccc(C(C)C)c1)n2C [Compound 142, 4-{2-[2-(3-Isopropyl-phenyl)-1,6-dimethyl-1H-benzoimidazol-5-ylamino]-thiazol-4-yl}-benzonitrile] | ≤ 1 µM
27 | Cc1cc2nc(-c3cccc(F)c3)[nH]c2cc1Nc1nccc(-c2cccnc2)n1 [Compound 019, [2-(3-Fluoro-phenyl)-6-methyl-3H-benzoimidazol-5-yl]-(4-pyridin-3-yl-pyrimidin-2-yl)-amine] | 1 to 10 µM
28 | Cc1cc2[nH]c(-c3cncn3C)nc2cc1Nc1nc(-c2ccncc2)cs1 [Compound 080, [6-Methyl-2-(3-methyl-3H-imidazol-4-yl)-1H-benzoimidazol-5-yl]-(4-pyridin-4-yl-thiazol-2-yl)-amine] | 1 to 10 µM
29 | Cc1cc2nc(-c3ccc(C(F)(F)F)cc3)[nH]c2cc1Nc1nc(-c2ccc(C#N)cc2)cs1 [Compound 076, 4-{2-[6-Methyl-2-(4-trifluoromethyl-phenyl)-3H-benzoimidazol-5-ylamino]-thiazol-4-yl}-benzonitrile] | 1 to 10 µM
30 | Cc1cc2nc(-c3ccc(CN4CCN(C)CC4)cc3)[nH]c2cc1Nc1nc(-c2cccnc2)cs1 [Compound 003, {6-Methyl-2-[4-(4-methyl-piperazin-1-ylmethyl)-phenyl]-3H-benzoimidazol-5-yl}-(4-pyridin-3-yl-thiazol-2-yl)-amine] | ≤ 1 µM
31 | Cc1cc2c(cc1Nc1nc(-c3ccncc3)cs1)nc(-c1cccc(N(C)C)c1)n2C [Compound 133] | ≤ 1 µM
32 | Cc1cc2c(cc1Nc1nc(-c3ccncc3)cs1)nc(-c1cccc(C(C)C)c1)n2C [Compound 151, [2-(3-Isopropyl-phenyl)-1,6-dimethyl-1H-benzoimidazol-5-yl]-(4-pyridin-4-yl-thiazol-2-yl)-amine] | ≤ 1 µM
33 | Cc1cc2nc(-c3cncn3C)[nH]c2cc1Nc1nc(-c2cccnc2)cs1 [Compound 077, [6-Methyl-2-(3-methyl-3H-imidazol-4-yl)-3H-benzoimidazol-5-yl]-(4-pyridin-3-yl-thiazol-2-yl)-amine] | 1 to 10 µM
34 | Cc1cc2nc(-c3cccc(C(F)F)c3)n(C)c2cc1Nc1nc(-c2cccnc2)cs1 [Compound 113, [2-(3-Difluoromethyl-phenyl)-3,6-dimethyl-3H-benzoimidazol-5-yl]-(4-pyridin-3-yl-thiazol-2-yl)-amine] | 1 to 10 µM
35 | Cc1cc2c(cc1Nc1nc(-c3ccc(C#N)cc3)cs1)nc(-c1cccc(C(F)(F)F)c1)n2C [Compound 114, 4-{2-[1,6-Dimethyl-2-(3-trifluoromethyl-phenyl)-1H-benzoimidazol-5-ylamino]-thiazol-4-yl}-benzonitrile] | ≤ 1 µM
